These molecules were tested against phosphorylated active hERK2 enzyme (Homo sapiens, UniProt P28482) (assay: Active human ERK2 (hERK2) Activity Assay (IMAP-FP)). Conditions: 10 point titration, 3 μM starting concentration, 0.5 nM hERK2, 30 μM ATP, 60 minutes reaction.
Chain of phosphorylated active hERK2 enzyme (P28482 whole entry): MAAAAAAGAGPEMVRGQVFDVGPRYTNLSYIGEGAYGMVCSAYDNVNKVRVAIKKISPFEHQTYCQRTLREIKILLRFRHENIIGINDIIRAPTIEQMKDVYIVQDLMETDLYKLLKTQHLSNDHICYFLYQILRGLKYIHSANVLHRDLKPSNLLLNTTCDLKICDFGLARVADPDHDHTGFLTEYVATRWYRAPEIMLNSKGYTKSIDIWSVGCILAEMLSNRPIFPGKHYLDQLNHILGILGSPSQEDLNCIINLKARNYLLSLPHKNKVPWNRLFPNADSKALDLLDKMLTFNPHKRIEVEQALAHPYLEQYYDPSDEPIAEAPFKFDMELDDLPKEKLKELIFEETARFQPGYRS
Format: biochemical
Experimental: Activated ERK2 activity was determined in an IMAP-FP assay (Molecular Devices). Using this assay format, the potency (IC50) of each compound was determined from a 10 point (1:3 serial dilution, 3 μM starting compound concentration) titration curve using the following outlined procedure. […] Following a 15 minute compound & enzyme incubation, each reaction was initiated by the addition of 10 μL kinase buffer containing 2.45 μM ERK2 IMAP substrate peptides and 75 μM ATP. The final reaction in each well of 25 μL consists of 0.5 nM hERK2, 900 nM unlabeled peptide, 80 nM labeled-peptide, and 30 μM ATP. Phosphorylation reactions were allowed to proceed for 60 minutes and were immediately quenched by the addition of 60 μL IMAP detection beads (1:1000 dilutions) in IMAP binding buffer (Molecular Devices) with 24 mM NaCl. Plates were read on EnVision reader after 60 minutes binding equilibration using Fluorescence Polarization protocol (Perkin Elmer).
`Cn1ncc2cc3nc(c21)NCCCC[C@H](c1ccccc1)NC(=O)N3` [Example 19, (9R)-1-Methyl-9-phenyl-1,6,9,10,11,12,13,14-octahydro-5,15-(azeno)pyrazolo[4,3-f][1,3,9]triazacyclotetradecin-7(8 H)-one] was tested, and the IC50 was 9.32 nM.
In the case of `CCn1ncc2cc3nc(c21)CCCOC(C)(C)[C@H](c1ccccc1)NC(=O)N3` [Example 11, (9S)-1-Ethyl-10, 10-dimethyl-9-phenyl-1,6,9,10,13,14-hexahydro-12H-5,15-(azeno)pyrazolo [4,3-i][1,4,6]oxadiazacyclotetradecin-7(8H)-one], the IC50 is reported as 16.2 nM.
In the case of `CCn1ncc2cc3nc(c21)/C=C\COC(C)(C)[C@H](c1ccccc1)NC(=O)N3` [Example 41, (9S,13Z)-1-Ethyl-10,10-dimethyl-9-phenyl-1,6,9,10-tetrahydro-12H-5,15-(azeno)pyrazolo [4,3-i][1,4,6]oxadiazacyclotetradecin-7(8H)-one], the IC50 is reported as 634 nM.
In the case of `Cn1ncc2cc3nc(c21)OCCOC[C@H](c1ccccc1)NC(=O)N3` [Example 29, (9S)-1-methyl-9-phenyl-1,6,9,10,12,13-hexahydro-5,15-(azeno)pyrazolo[4,3-i][1,12,4,6]dioxadiazacyclotetradecin-7(8H)-one], the IC50 is reported as 49.2 nM.
Work on `CCn1ncc2cc3nc(c21)NCCOC[C@H](c1ccccc1)NC(=O)N3` [Example 21, (9S)-1-Ethyl-9-phenyl-1,6,9,10,13,14-hexahydro-12H-5,15-(azeno)pyrazolo[4,3-i][1,4,6,12]oxatriazacyclotetradecin-7(8H)-one] yielded an IC50 of 5.01 nM.
`O=C1Nc2cc3cnn(C(F)F)c3c(n2)CCCOC[C@H](c2ccccc2)N1` [Example 9, (9S)-1-(Difluoromethyl)-9-phenyl-1,6,9,10,13,14-hexahydro-12H-5,15-(azeno)pyrazolo[4,3-i][1,4,6]oxadiazacyclotetradecin-7(8H)-one] gave an IC50 of 12.5 nM.
Work on `Cn1ncc2cc3nc(c21)CCCOC[C@H](c1ccccc1)NC(=O)N3` [Example 2, (9S)-1-Methyl-9-phenyl-1,6,9,10,13,14-hexahydro-12H-5,15-(azeno)pyrazolo[4,3-i][1,4,6]oxadiazacyclotetradecin-7(8H)-one] yielded an IC50 of 10.2 nM.
`CCn1ncc2cc3nc(c21)CC(C)(O)COC[C@H](c1ccccc1)NC(=O)N3` (stereo partly drawn) [Example 5, (9S)-1-Ethyl-13-hydroxy-13-methyl-9-phenyl-1,6,9,10,13,14-hexahydro-12H-5,15-(azeno)pyrazolo[4,3-i][1,4,6]oxadiazacyclotetradecin-7(8H)-one] showed an IC50 of 114 nM.
In the case of `CCn1ncc2cc3nc(c21)CCCO[C@H](CO)[C@H](c1ccccc1)NC(=O)N3` [Example 14, (9S,10S)-1-Ethyl-10-(hydroxymethyl)-9-phenyl-1,6,9,10,13,14-hexahydro-12H-5,15-(azeno)pyrazolo[4,3-i][1,4,6]oxadiazacyclotetradecin-7(8H)-one], the IC50 is reported as 3.44 nM.
`CCn1ncc2cc3nc(c21)[C@@H]1C[C@@H]1COC[C@H](c1ccccc1)NC(=O)N3` [Example 7, (9S,12aS,13 aR)-1-Ethyl-9-phenyl-1,6,9,10,12,12a,13,13a-octahydro-5,14-(azeno)cyclopropa[l]pyrazolo[4,3-i][1,4,6]oxadiazacyclotetradecin-7(8H)-one] showed an IC50 of 11.6 nM.
Molecule `CN1CCCc2nc(cc3cnn(C)c23)NC(=O)N[C@@H](c2ccccc2)C1` [Example 15, (9S)-1,11-Dimethyl-9-phenyl-1,6,9,10,11,12,13,14-octahydro-5,15-(azeno)pyrazolo[3,4-k][1,3,6]triazacyclotetradecin-7(8H)-one] has an IC50 of 56.8 nM.
`Cn1ncc2cc3nc(c21)OCCCC[C@H](c1ccccc1)NC(=O)N3` [Example 17, (9R)-1-Methyl-9-phenyl-1,6,8,9,10,11,12,13-octahydro-7H-5,15-(azeno)pyrazolo [3,4-c][1,7,9]oxadiazacyclotetradecin-7-one] gave an IC50 of 58.9 nM.
`COCCCn1ncc2cc3nc(c21)Cn1cc(nn1)CC(c1ccccc1)NC(=O)N3` (stereo not shown) [Example 37, 1-(3-Methoxypropyl)-9-phenyl-1,6,9,10-tetrahydro-5,16-(azeno)-14,11-(metheno)pyrazolo[4,3-l][1,2,3,7,9]pentaazacyclopentadecin-7(8H,15H)-one] gave an IC50 of 241 nM.
In the case of `CCn1ncc2cc3nc(c21)C[C@H](O)COC[C@H](c1ccc(Cl)c(F)c1)NC(=O)N3` [Example 54, (9S,13S)-1-Ethyl-9-(4-chloro-3-fluorophenyl)-13-hydroxy-1,6,9,10,13,14-hexahydro-12H-5,15-(azeno)pyrazolo[4,3-i][1,4,6]oxadiazacyclotetradecin-7(8H)-one], the IC50 is reported as 5.09 nM.
With `Cc1c2nnn1Cc1nc(cc3cnn(C)c13)NC(=O)NC(c1ccccc1)C2` (stereo not shown) [Example 40, 1,18-Dimethyl-9-phenyl-1,6,9,10-tetrahydro-5,16-(azeno)-14,11-(metheno)pyrazolo[4,3-l][1,2,3,7,9]pentaazacyclopentadecin-7(8H,15H)-one] the IC50 was 1950 nM.
`CCn1ncc2cc3nc(c21)C[C@H](O)COC[C@H](c1cccc(Cl)c1)NC(=O)N3` [Example 56, (9S,13S)-9-(3-chlorophenyl)-1-ethyl-13-hydroxy-1,6,9,10,13,14-hexahydro-12H-5,15-(azeno)pyrazolo[4,3-i][1,4,6]oxadiazacyclotetradecin-7(8H)-one] gave an IC50 of 0.996 nM.
`Cn1ncc2cc3nc(c21)Cn1cc(nn1)C[C@H](c1ccccc1)NC(=O)N3` [Example 35, (9R)-1-Methyl-9-phenyl-1,6,9,10-tetrahydro-5,16-(azeno)-14,11-(metheno)pyrazolo[4,3-l][1,2,3,7,9]pentaazacyclopentadecin-7(8H,15H)-one] showed an IC50 of 69.4 nM.
Work on `CCn1ncc2cc3nc(c21)C[C@H](O)COC[C@H](c1cccc(F)c1)NC(=O)N3` [Example 52, (9S,13S)-1-Ethyl-9-(3-fluorophenyl)-13-hydroxy-1,6,9,10,13,14-hexahydro-12H-5,15-(azeno)pyrazolo[4,3-i][1,4,6]oxadiazacyclotetradecin-7(8H)-one] yielded an IC50 of 14.5 nM.
In the case of `Cn1ncc2cc3nc(c21)NCCOC[C@H](c1ccccc1)NC(=O)N3` [Example 22, (9 S)-1-Methyl-9-phenyl-1,6,9,10,13,14-hexahydro-12H-5,15-(azeno)pyrazolo[4,3-i][1,4,6,12]oxatriazacyclotetradecin-7(8 H)-one], the IC50 is reported as 7.91 nM.
With `CCn1ncc2cc3nc(c21)CC(=O)COC[C@H](c1ccccc1)NC(=O)N3` [Example 43, (9 S)-1-Ethyl-9-phenyl-1,6,9,10-tetrahydro-12H-5,15-(azeno)pyrazolo [4,3-i][1,4,6]oxadiazacyclotetradecine-7,13(8H,14H)-dione] the IC50 was 11.2 nM.
For `CCn1ncc2cc3nc(c21)/C=C\COC(C)(C)[C@@H](c1ccccc1)NC(=O)N3` [Example 42, (9R,13Z)-1-Ethyl-10,10-dimethyl-9-phenyl-1,6,9,10-tetrahydro-12H-5,15-(azeno)pyrazolo [4,3-i][1,4,6]oxadiazacyclotetradecin-7(8H)-one], the IC50 was 230 nM.
For `O=C1Nc2cc3cnn(C(F)F)c3c(n2)/C=C\COC[C@H](c2ccccc2)N1` [Example 10, (9S,13Z)-1-(Difluoromethyl)-9-phenyl-1,6,9,10-tetrahydro-12H-5,15-(azeno)pyrazolo[4,3-i][1,4,6]oxadiazacyclotetradecin-7(8H)-one], the IC50 was 4.16 nM.
`Cn1ncc2cc3nc(c21)CNCCCC(c1ccccc1)NC(=O)N3` (stereo not shown) [Example 31, 1-Methyl-9-phenyl-1,6,9,10,11,12,13,14-octahydro-5,15-(azeno)pyrazolo[3,4-k][1,3,8]triazacyclotetradecin-7(8H)-one] was tested, and the IC50 was 832 nM.
For `Cn1ncc2cc3nc(c21)OCCC[C@H](O)[C@H](c1ccccc1)NC(=O)N3` [Example 23, (9S,10S)-10-Hydroxy-1-methyl-9-phenyl-1,6,8,9,10,11,12,13-octahydro-7H-5,15-(azeno)pyrazolo[3,4-c][1,7,9]oxadiazacyclotetradecin-7-one], the IC50 was 45.1 nM.
In the case of `CCn1ncc2cc3nc(c21)[C@H]1C[C@H]1COC[C@H](c1ccccc1)NC(=O)N3` [Example 8, (9S,12aR,13aS)-1-Ethyl-9-phenyl-1,6,9,10,12,12a,13,13a-octahydro-5,14-(azeno)cyclopropa[1]pyrazolo[4,3-i][1,4,6]oxadiazacyclotetradecin-7(8H)-one], the IC50 is reported as 49.7 nM.
In the case of `Cn1ncc2cc3nc(c21)OCCC[C@@H](O)[C@H](c1ccccc1)NC(=O)N3` [Example 24, (9S,10R)-10-Hydroxy-1-methyl-9-phenyl-1,6,8,9,10,11,12,13-octahydro-7H-5,15-(azeno)pyrazolo[3,4-c][1,7,9]oxadiazacyclotetradecin-7-one], the IC50 is reported as 190 nM.
With `CCn1ncc2cc3nc(c21)CCCO[C@@H](CO)[C@@H](c1ccccc1)NC(=O)N3` [Example 13, (9R,10R)-1-Ethyl-10-(hydroxymethyl)-9-phenyl-1,6,9,10,13,14-hexahydro-12H-5,15-(azeno)pyrazolo[4,3-i][1,4,6]oxadiazacyclotetradecin-7(8H)-one] the IC50 was 757 nM.
`CCn1ncc2cc3nc(c21)OCCC[C@@H](O)[C@H](c1ccccc1)NC(=O)N3` [Example 26, (9S,10R)-1-Ethyl-10-hydroxy-9-phenyl-1,6,8,9,10,11,12,13-octahydro-7H-5,15-(azeno)pyrazolo[3,4-c][1,7,9]oxadiazacyclotetradecin-7-one] gave an IC50 of 118 nM.
With `Cc1cc(-n2ncc3cc4nc(c32)Cn2cc(nn2)CC(c2ccccc2)NC(=O)N4)ccn1` (single isomer, unassigned) [Example 38, 1-(2-Methylpyridin-4-yl)-9-phenyl-1,6,9,10-tetrahydro-5,16-(azeno)-14,11-(metheno)pyrazolo[4,3-l][1,2,3,7,9]pentaazacyclopentadecin-7(8H,15H)-one] the IC50 was 87.3 nM.
Molecule `CN1CCCC(c2ccccc2)NC(=O)Nc2cc3cnn(C)c3c(n2)C1` (stereo not shown) [Example 33, 1,13-Dimethyl-9-phenyl-1,6,9,10,11,12,13,14-octahydro-5,15-(azeno)pyrazolo[3,4-k][1,3,8]triazacyclotetradecin-7(8H)-one] has an IC50 of 276 nM.
Work on `Cc1cc(-n2ncc3cc4nc(c32)Cn2cc(nn2)CC(c2ccccc2)NC(=O)N4)ccn1` (single isomer, unassigned) [Example 39, 1-(2-Methylpyridin-4-yl)-9-phenyl-1,6,9,10-tetrahydro-5,16-(azeno)-14,11-(metheno)pyrazolo[4,3-l][1,2,3,7,9]pentaazacyclopentadecin-7(8H,15H)-one] yielded an IC50 of 233 nM.

— patent US9988397B2, “ERK inhibitors” (Merck Sharp & Dohme Corp., priority 2014, dated 2018)
